Results taken from US10160705B2, “Class of HDAC inhibitors expands the renal progenitor cells population and improves the rate of recovery from acute kidney injury” (University of Pittsburgh—Of the Commonwealth System of …, priority 2011, dated 2018).
Read-outs that look alike come from different tables or passages of the source.

How the values were obtained:
[1] = test system: zebrafish embryos; assay: Phenotypic screen for edema and survival in zebrafish larvae at 72 hpf; conditions: for Dead / Edemic 1 (E1) / Edemic 2 (E2) / Edemic 3 (E3) / Wild-type (WT): number of larvae (of 36), 3 μM from 2 hpf, scored at 72 hpf; for effect on zebrafish embryos in the phenotypic screen: 3 μM
Protocol: The screen was performed in zebrafish embryos using the National Cancer Institute's Developmental Therapeutics Program (NCI/DTP) Diversity Set I. This library contains 1990 compounds selected by pharmacophore modeling to represent the more than 140,000 small molecules maintained in the NCI/DTP Open Repository. Compounds from the NCI/DTP Diversity Set I were diluted to 10 μM in E3 embryo medium (5 mM NaCl, 0.33 mM CaCl2, 0.33 mM MgSO4, and 0.17 mM KCl) in a final DMSO concentration of 0.5% and arrayed in 96-well plates. Beginning at approximately 2 hpf, embryos were transferred to each well in groups of five using a glass pipette. The plates were incubated at 28.5° C. for 70 hours. Individual wells were then scored for a dominant phenotype, representative of at least four of the five embryos. The primary objective was to identify compounds that caused edema in treated embryos at 72 hpf. Small molecules generating edema were retested once for verification, before obtaining additional compound from the NCI/DTP Open Repository.
PTBA was synthesized as described below. Hydroxyurea and aphidicolin were obtained from Sigma-Aldrich. Groups of 20 to 30 chorionated 2 hpf embryos were arrayed in individual wells of 12-well plates. E3 medium was removed with a glass pipette and replaced with 1.5 ml treatment solutions containing 0.5% DMSO in E3 with or without compound at the reported concentrations. Treatments for all studies were initiated at 2 hpf, except for the temporal studies (FIG. 6) and the HUA studies (FIG. 11). HUA studies were performed as described previously (Zhang, L., et al. Cell cycle progression is required for zebrafish somite morphogenesis but not segmentation clock function. Development 135, 2065-2070, (2008)), with the following modifications. HUA in 0.5% DMSO was added at early gastrulation (5 hpf) and PTBA was subsequently added at late gastrulation (8 hpf) to allow for penetration of the proliferation inhibitors. All embryos were incubated at 28.5° C. until the required developmental stage.
Following 70 hours of treatment (as described above), edemic phenotypes in 72 hpf larvae were scored using a phenotype-based classification system. Wild type: no visible edema or developmental delay. […] Significant effects (p<0.05) on survival were determined by two-tailed Fisher's exact test in comparison with the 0 μM PTBA treatment group.
PTBA and methyl-4-(phenylthio)butanoate were synthesized as described above. 4-(Naphthalen-2-ylthio)butanoic acid (NSC2733) and 3-(phenylthio)benzoic acid (NSC113994), were obtained from the NCI/DTP Open Repository. APHA compound 8, Apicidin, butanoic acid, PBA, 4-phenoxybutanoic acid, 5-phenylpentanoic acid, Scriptaid, TSA, and valproic acid were obtained from Sigma-Aldrich. MS-275 and SAHA were obtained from Cayman Chemical Co. 4-(phenylsulfonyl)butanoic acid was obtained from Matrix Scientific. Tubacin was a gift of Dr. Ralph Mazitschek of the Broad Institute (Cambridge, Mass.). The remaining PTBA analogs were synthesized. Three independent groups of 12 chorionated 2 hpf embryos were arrayed in individual wells of 24-well plates. E3 medium was removed with a glass pipette and replaced with 800 μl treatment solutions containing 0.5% DMSO in E3 with or without compound at the reported concentrations.
Phenotypic screening of PTBA analogs was performed identically to the concentration-response experiments detailed above. Embryos were treated with each PTBA analog from 2 to 72 hpf as described above.

[2] = test system: renal progenitor cells; assay: In situ hybridization for lhx1a expression in 10-somite embryos (renal progenitor cell expansion); format: in vivo; conditions: for responders at 1.5 µM / responders at 0.2 µM / responders at 0.4 µM / responders at 3 µM / EC50 / responders at 0.8 µM: Danio rerio; for EC50: first pass EC50 from percent expansion (Excel trendline), average where several experiments; for Lhx1a expansion caused by analog treatment, 200 nM: 200 nM from 2 hpf; for Lhx1a expansion caused by analog treatment, 400 nM: 400 nM from 2 hpf; on Lhx1a expansion caused by analog treatment, 200 nM: key: effective (+); partially effective (+/−); ineffective (−); Analogs that killed all embryos at a given concentration before reaching 10 somites are listed as XX; on Lhx1a expansion caused by analog treatment, 3 μM: key: effective (+); partially effective (+/−); ineffective (−); Analogs that killed all embryos at a given concentration before reaching 10 somites are listed as XX; on Lhx1a expansion caused by analog treatment, 400 nM: key: effective (+); partially effective (+/−); ineffective (−); Analogs that killed all embryos at a given concentration before reaching 10 somites are listed as XX; on Lhx1a expansion caused by analog treatment, 800 nM: key: effective (+); partially effective (+/−); ineffective (−); Analogs that killed all embryos at a given concentration before reaching 10 somites are listed as XX
Protocol: PTBA was synthesized as described below. Hydroxyurea and aphidicolin were obtained from Sigma-Aldrich.
In situ hybridization and immunocytochemistry: In situ hybridization was performed as previously described with some modifications.142 Hybridization temperature was 65° C. Embryos were blocked in 2% blocking reagent (Roche) with 5% sheep serum in MAB (100 mM maleic acid and 150 mM NaCl [pH 7.5]). Whole-mount immunocytochemistry with 1:25 mouse anti-α6F antibody (Developmental Studies Hybridoma Bank) and 1:100 Cy3 secondary antibody (Jackson ImmunoResearch) was performed as described previously.108 Embryos were embedded in JB-4 for sectioning per the manufacturer's instructions (Polysciences), sectioned at 5 μm, and mounted with Cytoseal 60 (Richard-Allan Scientific).
The remaining PTBA analogs were synthesized.
In situ hybridization for lhx1a was performed as described above. […] Compounds were classified as effective, partially-effective or ineffective based on comparison to the effects of PTBA at a given concentration.
Testing of the compounds is on-going, but for those tested, Table 6 provides first pass EC50s based upon colormetric in situ hybridizations for the Lhx1a mRNA expression levels. After the procedure is run, in situ hybridization is done for the lhx1 mRNA expression and the number of embryos that show an expanded kidney field is manually counted to establish the percent of embryos showing expansion. Then the EC50 is determined by plotting the percent expansion in Excel, graphing the results and using the trendline function to determine the 50 percent point.

[3] = 800 nM from 2 hpf, 10-somite embryos
[4] = 1.5 μM from 2 hpf, 10-somite embryos
[5] = 3 μM from 2 hpf, 10-somite embryos
[6] = 1.5 μM from 2 hpf, 10-somite embryos, read-out: lhx1a expansion, percent of treated embryos
[7] = percent of embryos with expanded kidney field, 200 nM, read-out: Expansion of Cells (including repeats* and recounts**) 200 nM
[8] = percent of embryos with expanded kidney field, 400 nM, read-out: Expansion of Cells (including repeats* and recounts**) 400 nM
[9] = percent of embryos with expanded kidney field, 1.5 μM, read-out: Expansion of Cells (including repeats* and recounts**) 1.5 μM
[10] = percent of embryos with expanded kidney field, 3 μM, read-out: Expansion of Cells (including repeats* and recounts**) 3 μM
[11] = 3 μM from 2 hpf, 10-somite embryos, read-out: lhx1a expansion, percent of treated embryos

SMILES | Dead [1] | Edemic 1 (E1) [1] | Edemic 2 (E2) [1] | Edemic 3 (E3) [1] | Wild-type (WT) [1] | Lhx1a expansion caused by analog treatment, 800 nM [2, 3] | Lhx1a expansion caused by analog treatment, 1.5 μM [2, 4] | Lhx1a expansion caused by analog treatment, 3 μM [2, 5] | responders at 1.5 µM [2, 6] [%] | other results
CCCOC(=O)CCCSc1ccccc1 [UPHD-00024, propyl 4-(phenylsulfanyl)butanoate] | 6 | 7 | 8 | 15 | 0 | +/− | + | + | 89 | responders at 0.2 µM [2, 7]: 0%; responders at 0.4 µM [2, 8]: 10%; responders at 1.5 µM [2, 9]: 89%; responders at 3 µM [2, 10]: 94%; EC50 [2]: 1.27 µM
O=C(O)CCCCc1ccccc1 [5-phenylpentanoic acid, reference compound] | 0 | 0 | 0 | 0 | 36 |  |  | − |  | lhx1a expansion, percent of treated embryos [2, 5]: no expansion
CCCC(=O)O [butanoic acid, reference compound] | 1 | 0 | 0 | 0 | 35 |  |  | − |  | 
COC(=O)CCCSc1ccc(C)cc1 [UPHD-00026, methyl 4-[(4-methyl-phenyl)sulfanyl]butanoate] | 11 | 0 | 2 | 23 | 0 | + | + | + | 100 | Lhx1a expansion caused by analog treatment, 200 nM ([2]; 10-somite embryos): −; Lhx1a expansion caused by analog treatment, 400 nM ([2]; 10-somite embryos): −; responders at 0.2 µM [2, 7]: 3%; responders at 0.4 µM [2, 8]: 14%; responders at 0.8 µM ([2]; percent of embryos with expanded kidney field, 800 nM, read-out: Expansion of Cells (including repeats* and recounts**) 800 nM): 49%; responders at 1.5 µM [2, 9]: 100%; responders at 3 µM [2, 10]: 100%
COc1ccc(SCCCC(=O)NO)cc1 [VNK-I-289, 4-[(4-methoxy-phenyl)sulfanyl]-N-hydroxybutanamide] | 0 | 20 | 0 | 0 | 16 |  |  | +/− |  | responders at 3 µM [2, 11]: 31%
O=C(O)CCCNc1ccccc1 [VNK-I-300, 4-(phenylamino)butanoic acid] | 0 | 1 | 0 | 0 | 35 |  |  | − |  | 
COC(=O)CCCSc1ccc(Br)cc1 [VNK-I-290] | 0 | 27 | 1 | 0 | 8 |  |  | +/− |  | responders at 3 µM [2, 11]: 74%
Nc1ccccc1NC(=O)c1ccc(CNC(=O)OCc2cccnc2)cc1 [MS-275, reference compound] | 0 | 0 | 0 | 0 | 36 |  |  | − |  | effect on zebrafish embryos in the phenotypic screen [1]: no effect
CCC(C)OC(=O)CCCSc1ccccc1 (stereo not drawn) [VNK-I-154] | 1 | 19 | 12 | 2 | 2 | +/− | + | + | 89 | 
O=C(O)c1cccc(Sc2ccccc2)c1 [3-(phenylthio)benzoic acid, reference compound] | 0 | 34 | 0 | 0 | 2 |  |  | − |  | lhx1a expansion, percent of treated embryos [2, 5]: no expansion
O=C(CCCSc1ccccc1)NO [UPHD-00023, N-hydroxy- 4(phenyl- sulfanyl)butanamide] | 0 | 3 | 20 | 13 | 0 | +/− | + | + | 92 | responders at 0.2 µM [2, 7]: 0%; responders at 0.4 µM [2, 8]: 6%; responders at 1.5 µM [2, 9]: 92%; responders at 3 µM [2, 10]: 100%; EC50 [2]: 1.3 µM
O=C(O)CCCOc1ccccc1 [4-phenoxybutanoic acid, reference compound] | 0 | 0 | 0 | 0 | 36 |  |  | − |  | responders at 3 µM [2, 11]: 13%
COC(=O)CCCSc1ccc(F)cc1 [UPHD-00030, methyl 4-[(4-fluoro-phenyl)sulfanyl]butanoate] | 36 | 0 | 0 | 0 | 0 | + | + |  | 100 | Lhx1a expansion caused by analog treatment, 200 nM ([2]; 10-somite embryos): +/−; Lhx1a expansion caused by analog treatment, 400 nM ([2]; 10-somite embryos): +/−; lhx1a expansion, percent of treated embryos [2, 3]: 64%; lethality before the 10-somite stage ([2]; 3 μM): killed all treated embryos; responders at 1.5 µM [2, 9]: 100%; responders at 0.2 µM ([2]; read-out: lhx1a expansion, percent of treated embryos, 200 nM from 2 hpf, 10-somite embryos): 22%; responders at 0.4 µM ([2]; read-out: lhx1a expansion, percent of treated embryos, 400 nM from 2 hpf, 10-somite embryos): 26%; responders at 0.8 µM ([2]; read-out: lhx1a expansion, percent of treated embryos, 800 nM from 2 hpf, 10-somite embryos): 64%; EC50 [2]: 0.485 µM; Expansion of Cells (including repeats* and recounts**) 3 μM ([2]; percent of embryos with expanded kidney field, 3 μM): All dead
O=C(CCCCCCC(=O)Nc1ccc([C@H]2O[C@@H](CSc3nc(-c4ccccc4)c(-c4ccccc4)o3)C[C@@H](c3ccc(CO)cc3)O2)cc1)NO [tubacin, reference compound] | 0 | 0 | 0 | 0 | 36 |  |  | − |  | effect on zebrafish embryos in the phenotypic screen [1]: appeared wild-type
